“And” between values parts separate entries of the source, which are not always exact repeats. Equal values may be shown once.
Tests used:
[1] = transdermal absorption: urinary excretion of drug after topical application in rats; type: in vivo; conditions: for AVERAGE of total micrograms excreted: average of three rats, urine over 24 hours on fifth day; for AVERAGE of total micrograms excreted / TOTAL MICROGRAMS EXCRETED: 50/30/20 propylene glycol/ethanol/water; for TOTAL MICROGRAMS EXCRETED: individual rats 1-3, urine over 24 hours on fifth day after four days topical treatment
Protocol: The ability of the 5-fluoro minoxidil to be absorbed in transdermal applications was measured versus minoxidil as a control. Three rats were treated with each compound for four days and on the fifth day their urine was collected over a 24 hour period. The urine was then analyzed for drug levels and converted to micrograms urine excreted per 24 hours. The compounds were administered in a 50/30/20 propylene glycol/ethanol/water vehicle.

[2] = hair growth in stumptail macaque monkeys (balding scalp, hair weight change from baseline); type: in vivo, stumptail macaque (Macaca specoisa) monkeys; conditions: Table III; topical 100 mM in 50% propylene glycol/50% ethanol, sixteen weeks; vehicle -1.8 ± 2.7; mean±SEM
Protocol: The 5-fluoro minoxidil compounds were evaluated in the macaque monkey models and show significant hair growth results.
Thirteen stumptail macaque (Macaca specoisa) monkeys (mixed sexes) were assigned to vehicle control and drug treated groups on the basis of baseline hair weight data.
1. Topical 50:50 vehicle (N=7)
The control consisted of 50% propylene glycol, 50% ethanol. The experimental composition consisted of a 100 mM concentration of topical 5-fluoro minoxidil formulated in the control vehicle. Immediately prior to the dosing phase of the study, hair was removed from a 1 inch square area (identified by four tattoos) in the center of the balding scalp. This hair collection was the baseline hair growth determination prior to the beginning of treatment. Approximately 250 μL of vehicle or 100 mM 5-fluoro minoxidil (prepared in vehicle)were topically administered to the tattooed area of the scalp. The monkeys were dosed once per day, five days per week for sixteen weeks.
At four week intervals throughout the dosing phase of the study, each monkey was shaved and the hair was collected and weighed. The body weight data (at baseline and during assay) were analyzed by the nonparametric Wilcoxon rank-sum test. Differences were significant at p<0.05. The hair weight data (mean±SEM) at each 4 week collection for vehicle and treatment groups were expressed as the change from baseline. […]

[3] = in vivo hair growth assay using rats (shaved hair weighed every seven days); conditions: for Hair Growth: mean
Protocol: The 5-fluoro minoxidil compounds were evaluated for hair growth in an in vivo hair growth assay using rats. Each rat is dosed with vehicle and drug, 200-500 microliters per day, 5 days per week. Every seven days the treated areas are shaved and the hair removed is weighed to compare normal untreated hair growth to the drug treated hair growth.

[4] = cardiovascular effects in vivo in conscious beagle dogs (mean arterial pressure, heart rate); conditions: 1.5 mg/kg; N=1; FIG. 2; 5-fluoro minoxidil compared to minoxidil
Protocol: The 5-fluoro minoxidil compounds were evaluated for cardiovascular effects in an in vivo test with beagle dogs. This test procedure is described in Humprey SJ, Zins GR, Whole Body and Regional Hemodynamic Effects of Minoxidil in the Conscious Dog, J. Card, Pharm. 6:979-88 (1984) and in Humprey, S.J., Zins, G.R., The Effects of Indomethacin on the Systemic and Regional Vasodilator Responses to Minoxidil in the Conscious Dog, Chem. Path. & Pharm. 59:1 3-20 (1988). Experiments were conducted using a radiolabeled tracer microspheres technique, Wagner NH et al., Studies of the Circulation with Radioactive Microspheres, Invest. Radiol. 4:374-86 (1969), with conscious beagle dogs. The results of a rapid evaluation (N=1) of the 5-fluoro minoxidil compound compared to minoxidil are presented in FIG. 1 change in Mean Arterial Pressure versus Time at the doses indicated and FIG. 2 Changes in Heart Rate versus Time at the doses indicated.

SMILES	AVERAGE of total micrograms excreted [1] [MICROGRAMS]	transdermal transport properties versus unsubstituted minoxidil ([1]; in words)	TOTAL MICROGRAMS EXCRETED [1]	absorption versus minoxidil ([1]; transdermal, rats, in words)	Hair Growth (cumulative change in hair weight from baseline) [2]	Hair Growth ([3]; Table I, 1 mM, topical, vehicle 50/30/20 propylene glycol/ethanol/water, vehicle +0.527 ± 0.081)	Hair Growth ([3]; Table I, 5 mM, topical, vehicle 50/30/20 propylene glycol/ethanol/water, vehicle +0.527 ± 0.081)	Hair Growth ([3]; Table I, 25 mM, topical, vehicle 50/30/20 propylene glycol/ethanol/water, vehicle +0.527 ± 0.081)	Hair Growth ([3]; Table II, 25 mM 5-fluoro-minoxidil in 50/30/20 propylene glycol/ethanol/water, vehicle +0.528)	change in Heart Rate [4]	statistical difference (p) between the two agents in level of hair growth stimulation ([3]; 100 mM minoxidil vs 25 mM 5-fluoro-minoxidil)	Hair Growth ([3]; Table II, 100 mM minoxidil in 100% PG (propylene glycol), 100% PG alone +0.487)
Nc1nc(N2CCCCC2)c(F)c(N)[n+]1[O-] [5-fluoro minoxidil, 5-Fluoro-6-piperidinyl-2,4-pyrimidinediamine, 3-Oxide]	1427	superior transdermal transport properties over unsubstituted minoxidil	1229 MICROGRAMS and 1132 MICROGRAMS and 1921 MICROGRAMS	superior absorption over the minoxidil control	+14.8 ± 3.1 mg	+0.609 ± 0.083 mg/in^2 /day	+0.760 ± 0.153 mg/in^2 /day	+0.952 ± 0.149 mg/in^2 /day	+0.938 mg/in^2 /day	–	–	–
Nc1cc(N2CCCCC2)nc(N)[n+]1[O-] [Minoxidil, reference compound]	454	–	354 MICROGRAMS and 358 MICROGRAMS and 651 MICROGRAMS	–	–	–	–	–	–	increases in heart rate	no statistical difference	+1.065 mg/in^2 /day
